From ChEMBL document CHEMBL2163249, “Exploration of natural compounds as sources of new bifunctional scaffolds targeting cholinesterases and beta amyloid aggregation: the case of chelerythrine” (Bioorg Med Chem, 2012) come the findings set out here.

Test [1] concerns the target Cholinesterase (Equus caballus) (UniProt P81908). As to conditions: at 2 mg/mL.
Description: Inhibition of horse BChE at 2 mg/ml by Ellman's method
For test [2], the target named is Acetylcholinesterase (Electrophorus electricus) (UniProt O42275). Particulars: at 2 mg/mL.
Sequence of Acetylcholinesterase (Electrophorus electricus) (O42275 24-633 limits assumed): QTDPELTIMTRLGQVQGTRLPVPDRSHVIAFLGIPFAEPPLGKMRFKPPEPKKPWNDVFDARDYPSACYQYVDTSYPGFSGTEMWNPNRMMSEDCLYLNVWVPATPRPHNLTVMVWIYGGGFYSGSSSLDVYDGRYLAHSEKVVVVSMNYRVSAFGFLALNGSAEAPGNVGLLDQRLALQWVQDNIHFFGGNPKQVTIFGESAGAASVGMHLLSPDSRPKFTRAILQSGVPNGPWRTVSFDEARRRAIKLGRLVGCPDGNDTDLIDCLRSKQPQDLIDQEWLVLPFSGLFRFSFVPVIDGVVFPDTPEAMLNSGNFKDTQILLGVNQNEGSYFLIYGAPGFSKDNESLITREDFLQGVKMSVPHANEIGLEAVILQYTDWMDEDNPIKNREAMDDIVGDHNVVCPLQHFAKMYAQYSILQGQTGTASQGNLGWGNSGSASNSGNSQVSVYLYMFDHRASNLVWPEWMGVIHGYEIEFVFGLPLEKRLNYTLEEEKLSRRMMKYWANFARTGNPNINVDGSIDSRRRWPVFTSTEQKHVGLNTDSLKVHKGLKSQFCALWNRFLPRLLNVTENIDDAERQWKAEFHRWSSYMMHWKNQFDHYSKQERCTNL
Description: Inhibition of electric eel AChE at 2 mg/ml by Ellman's method

Sequence of Cholinesterase (Equus caballus) (P81908 whole entry): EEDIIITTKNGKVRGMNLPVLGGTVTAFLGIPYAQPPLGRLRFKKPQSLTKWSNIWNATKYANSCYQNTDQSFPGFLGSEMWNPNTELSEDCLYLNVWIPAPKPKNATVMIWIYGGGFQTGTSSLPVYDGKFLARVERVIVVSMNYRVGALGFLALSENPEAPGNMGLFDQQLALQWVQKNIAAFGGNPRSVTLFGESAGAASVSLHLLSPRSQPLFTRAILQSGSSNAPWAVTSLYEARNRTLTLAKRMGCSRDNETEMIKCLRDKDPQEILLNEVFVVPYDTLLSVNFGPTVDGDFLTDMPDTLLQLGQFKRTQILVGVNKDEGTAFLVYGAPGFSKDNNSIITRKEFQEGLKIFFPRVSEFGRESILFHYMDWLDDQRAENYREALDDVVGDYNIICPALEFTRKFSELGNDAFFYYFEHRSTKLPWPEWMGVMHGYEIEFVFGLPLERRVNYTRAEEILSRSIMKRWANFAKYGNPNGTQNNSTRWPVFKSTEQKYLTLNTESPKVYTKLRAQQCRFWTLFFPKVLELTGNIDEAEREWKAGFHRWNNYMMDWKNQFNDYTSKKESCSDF

One may read the inhibition as the drop in the measured response relative to a control, in per cent. Regarding `C=CCc1ccc(O)c(-c2ccc(O)c(CC=C)c2)c1`, the inhibition in test [1] is 7.62%; in test [2] it was -3.48%.

`COc1cc2c(cc1O)CCN[C@H]2C`: the figures for the inhibition in test [1] and in test [2] were -4.77% and 10.8%, respectively.

Turning to `COc1cc(/C=C/c2ccccc2)oc(=O)c1`, the inhibition was -0.13% in test [1] and -0.87% in test [2].

As to `C=C1C(=O)O[C@@H]2C3O[C@]3(C)CC/C=C(\C)CC[C@@H]12` (stereo partly drawn), the inhibition is 14% in test [1] and -5.29% in test [2].

`O=C1Nc2ccccc2/C1=C1/Nc2ccccc2C1=O`: the values for the inhibition in test [1] and in test [2] were 13.7% and 7.97%, respectively.

For `O=C1C[C@@H](c2ccccc2)Oc2cc(O)cc(O)c21`, the inhibition in test [1] was 1.45%; in test [2], 27.3%.

As to `COc1cc([C@@H]2c3cc4c(cc3[C@H](O)[C@H]3COC(=O)[C@H]23)OCO4)cc(OC)c1OC`, the inhibition in test [1] was -9.54%; in test [2], 8.74%.

As to `Cc1cccc2c3c(ccc12)C1=C(C(=O)C3=O)[C@@H](C)CO1`, the inhibition in test [1] was -3.19%; in test [2], 3.53%.

For the compound `O=C(/C=C/c1ccc(O)c(O)c1)c1ccc(O[C@@H]2O[C@H](CO)[C@@H](O)[C@H](O)[C@H]2O)c(O)c1O`, the figures for the inhibition in test [1] and in test [2] were 2.03% and 22.2%, respectively.

Turning to `C[C@H]1O[C@@H](O[C@H]2[C@@H](O)C[C@H](O[C@H]3[C@@H](O)C[C@H](O[C@H]4CC[C@@]5(C)[C@H](CC[C@@H]6[C@@H]5CC[C@]5(C)[C@@H](C7=CC(=O)OC7)CC[C@]65O)C4)O[C@@H]3C)O[C@@H]2C)C[C@H](O)[C@@H]1O`, the inhibition in test [1] was -0.78%; in test [2], -1.83%.

On to `CO[C@@H]1[C@@H](OC)[C@H](C)[C@@](O)(CC(=O)O)O[C@H]1[C@H](C)[C@H]1O[C@@]2(CC[C@@](C)([C@H]3CC[C@@](C)([C@@H]4O[C@@H]([C@H]5O[C@](C)(O)[C@H](C)C[C@@H]5C)C[C@@H]4O[C@@H]4C[C@H](OC)[C@@H](OC)[C@H](C)O4)O3)O2)C[C@H](O)[C@H]1C`, for which the inhibition in test [1] was -3.8%; in test [2], 22.7%.

As for `N[C@@H](Cn1oc(=O)[nH]c1=O)C(=O)O`, the inhibition in test [1] turned out to be 2.65%; in test [2] it was 23.1%.

On to `CCOC(=O)Oc1c(OC)cc(C(=O)O[C@@H]2C[C@@H]3CN4CCc5c([nH]c6cc(OC)ccc56)[C@H]4C[C@@H]3[C@H](C(=O)OC)[C@H]2OC)cc1OC`, for which the values for the inhibition in test [1] and in test [2] were -6.04% and -6.1%, respectively.

On to `C[C@@H]1O[C@@H](O[C@H]2C[C@@H](O)[C@]3(CO)[C@H]4[C@H](O)C[C@]5(C)[C@@H](C6=CC(=O)OC6)CC[C@]5(O)[C@@H]4CC[C@]3(O)C2)[C@H](O)[C@H](O)[C@H]1O`, for which the inhibition is 5.11% in test [1] and -3.72% in test [2].

Regarding `CCCCCCCCCCC1=C(C)C(=O)C(OC)=C(OC)C1=O`, the inhibition in test [1] was found to be 0.01%; in test [2], 21.8%.

For `COc1cc2c(cc1CC=C(C)C)C(=O)C[C@@H](c1ccc(O)cc1)O2`, the inhibition in test [1] is 4.89%; in test [2], 23.2%.

Regarding `C=C1C[C@]23C[C@@]1(O)CC[C@H]2[C@@]12C=C[C@H](O)[C@@](C)(C(=O)O1)[C@H]2[C@@H]3C(=O)O`, the results for the inhibition in test [1] and in test [2] were -5.65% and -1.11%, respectively.

As to `O[C@H]1[C@H]2[C@H](O)CCCN2C[C@H]1O`, the inhibition is -2.04% in test [1] and 5.09% in test [2].

`CO[C@H]1C[C@H](O[C@H]2[C@H](C)[C@@H](O[C@@H]3O[C@H](C)C[C@H](N(C)C)[C@H]3OC(C)=O)[C@@H](C)C[C@@]3(CO3)C(=O)[C@H](C)[C@@H](OC(C)=O)[C@@H](C)[C@@H](C)OC(=O)[C@@H]2C)O[C@@H](C)[C@@H]1OC(C)=O`: the inhibition was -1.09% in test [1] and 14.8% in test [2].

Take `CC(C)[C@@H]1NC(=O)[C@H](C)OC(=O)[C@@H](C(C)C)NC(=O)[C@@H](C(C)C)OC(=O)[C@H](C(C)C)NC(=O)[C@H](C)OC(=O)[C@@H](C(C)C)NC(=O)[C@@H](C(C)C)OC(=O)[C@H](C(C)C)NC(=O)[C@H](C)OC(=O)[C@@H](C(C)C)NC(=O)[C@@H](C(C)C)OC1=O`: the inhibition is -1.5% in test [1] and 16.6% in test [2].

On to `CC[C@H]1CN2CCc3cc(OC)c(OC)cc3[C@@H]2C[C@@H]1C[C@H]1NCCc2cc(OC)c(OC)cc21`, for which the inhibition in test [1] is 1.38%; in test [2], 13.7%.

As for `COc1cc(O)c2c(c1)oc(=O)c1c3cc(O)c(O)cc3oc21`, the inhibition is 11.1% in test [1] and 11.8% in test [2].

In the case of `CC(=O)O[C@H]1[C@H]2[C@@H](OC(=O)Cc3ccccc3)[C@@H](C)C[C@]2(OC(C)=O)C(=O)/C(C)=C/[C@@H]2[C@H](CC[C@@]13CO3)C2(C)C`, the inhibition in test [1] was -5.46%; in test [2], -2.46%.

As to `COc1ccc2cc1Oc1ccc(cc1)C[C@H]1c3c(cc4c(c3Oc3cc5c(cc3OC)CCN(C)[C@@H]5C2)OCO4)CCN1C`, the results for the inhibition in test [1] and in test [2] were 40.6% and 8.59%, respectively.

As for `CCCCCCCCCCCCCC[C@@H](O)[C@@H](O)[C@H](CO)NC(C)=O`, the inhibition in test [1] was 3.97%; in test [2] it was 0.15%.

`CN1[C@H]2CC(=O)C[C@@H]1C(O)C2` (stereo partly drawn): the results for the inhibition in test [1] and in test [2] were -3.92% and -7.3%, respectively.

With `CC(C)=CCC/C(C)=C/COc1ccc2ccc(=O)oc2c1`, the inhibition in test [1] was 1.5%; in test [2], -3.79%.

In the case of `COc1cc2c3cc1Oc1cc(ccc1O)C[C@@H]1c4c(cc(OC)c(O)c4Oc4ccc(cc4)C[C@@H]3N(C)CC2)CC[N+]1(C)C`, the inhibition in test [1] amounted to 3.03%; in test [2], 5.5%.

For `O=c1c(-c2ccc(O)cc2)coc2cc(O)cc(O)c12`, the inhibition in test [1] worked out at 10.5%; in test [2] it was 7.3%.

Turning to `N[C@H](C(=O)O)[C@@H]1CC(Cl)=NO1`, the inhibition in test [1] worked out at 8.62%; in test [2], 2.09%.

For `O=C1C[C@@H](c2ccc(O)cc2)Oc2cc(O)cc(O)c21`, the inhibition turned out to be 0.68% in test [1] and 7.24% in test [2].

For the compound `CC1(C)C2CCC1(C(=O)O)C(=O)C2` (stereo not drawn), the inhibition in test [1] is -2.51%; in test [2] it was 16.7%.

As to `CC(C)=CCC/C(C)=C/CC/C(C)=C/CC/C(C)=C/C(=O)O`, the inhibition was -2.05% in test [1] and -5.57% in test [2].

Turning to `CC(C)[C@H]1C(=O)O[C@@H]2CCN3CC=C(COC(=O)[C@](C)(O)[C@]1(C)O)[C@H]23`, the inhibition in test [1] was 3.04%; in test [2], 24.2%.

In the case of `CC1=CC(=O)c2c(O)cccc2C1=O`, the figures for the inhibition in test [1] and in test [2] were 9.94% and 31.8%, respectively.

Consider `CC1(C)CCC2=C(O1)c1ccccc1C(=O)C2=O`, for which the inhibition in test [1] is 11.2%; in test [2], -2.91%.

As to `COc1ccc(-c2oc3cc(O)cc(O)c3c(=O)c2O)cc1O`, the inhibition was found to be 3.18% in test [1] and 25.9% in test [2].

As to `CO[C@@]12[C@H](COC(N)=O)C3=C(C(=O)C(C)=C(N)C3=O)N1C[C@@H]1N[C@@H]12`, the figures for the inhibition in test [1] and in test [2] were 3.34% and 4.01%, respectively.

On to `C[C@@H]1C[C@H]2CC[C@H](O2)[C@H](C)C(=O)O[C@@H](C)C[C@@H]2CC[C@@H](O2)[C@@H](C)C(=O)O[C@H](C)C[C@H]2CC[C@@H](O2)[C@H](C)C(=O)O[C@@H](C)C[C@@H]2CC[C@@H](O2)[C@@H](C)C(=O)O1`, for which the inhibition in test [1] is -1.31%; in test [2] it was 16.4%.
